The test system of one data set is TRPV4EC channels. Kind of data set: TRPV4 sparklet activity in endothelium of small PAs after lung IR (in presence of CPA). Type of data set: cell-based, mice. On the procedure: Murine lung IR model: A well-established left lung IRI model involving temporary in vivo ligation of the left hilum (pulmonary artery, vein, and airway) was used.^6 Briefly, mice were anesthetized with inhaled isoflurane, intubated, ventilated with room air at 150 strokes/min with a tidal volume of […] (Harvard Apparatus Co, South Natick, MA), and heparinized (20 U/kg: Hospira Inc, Lake Forest, IL). An anterolateral thoracotomy was performed through the fourth intercostal space to expose the left hilum. A 6-0 Prolene suture (Ethicon. Somerville, NJ) was passed around the left hilum, and the suture ends were passed through a 5-mm length of polyethylene (PE)-50 tubing. A surgical clip was used to fashion a Rummel tourniquet to provide temporary occlusion of the left hilar structures. The thoracotomy was closed, anesthesia was weaned, and analgesia was administered (intraperitoneal buprenorphine. 0.2 mg/kg). Animals recovered in their cages during the 1-hour ischemic period, after which they were anesthetized again and intubated, the Rummel tourniquet was removed, and the thoracotomy was closed. Animals were again extubated, recovered in their cage, and monitored during the 2-hour reperfusion period. […]
Ca^2+ imaging in Pas: Ca^2+ imaging in small Pas was performed as previously described.8 Fourth-order, small (~50 μm diameter) Pas (see FIG. 1B) were dissected from left lungs in cold HEPES-buffered physiological salt solution (HEPES-PSS; 10 mM HEPES, 134 mM NaCl, 6 mM KCl, 1 mM MgCl2 hexahydrate, 2 mM CaCl2) dihydrate, and 7 mM dextrose; pH adjusted to 7.4 using 1 M NaOH). […] Fluo-4 was excited using a 488-nm solid-state laser, and emitted fluorescence was captured using a 525/36-nm band-pass filter. […] Baseline Ca^2+ signaling activity was recorded in the absence of CPA.
TRPV4 sparklets were assessed as increases in fluorescence relative to baseline fluorescence, obtained by averaging 10 quiescent images prior to stimulation. […]

Data set [1] concerns pulmonary endothelium of small PAs. Kind of data set: Baseline endothelial Ca2+ signaling in en face small PAs after lung IR (Fluo-4 confocal imaging). Type of data set: cell-based, mice. The procedure:
Murine lung IR model: A well-established left lung IRI model involving temporary in vivo ligation of the left hilum (pulmonary artery, vein, and airway) was used.^6 Briefly, mice were anesthetized with inhaled isoflurane, intubated, ventilated with room air at 150 strokes/min with a tidal volume of […] (Harvard Apparatus Co, South Natick, MA), and heparinized (20 U/kg: Hospira Inc, Lake Forest, IL). An anterolateral thoracotomy was performed through the fourth intercostal space to expose the left hilum. A 6-0 Prolene suture (Ethicon. Somerville, NJ) was passed around the left hilum, and the suture ends were passed through a 5-mm length of polyethylene (PE)-50 tubing. A surgical clip was used to fashion a Rummel tourniquet to provide temporary occlusion of the left hilar structures. The thoracotomy was closed, anesthesia was weaned, and analgesia was administered (intraperitoneal buprenorphine. 0.2 mg/kg). Animals recovered in their cages during the 1-hour ischemic period, after which they were anesthetized again and intubated, the Rummel tourniquet was removed, and the thoracotomy was closed. Animals were again extubated, recovered in their cage, and monitored during the 2-hour reperfusion period. Sham animals underwent the same surgical procedure except that application of the Rummel tourniquet to induce ischemia was omitted; thus, these animals were perfused for a total of 3 hours.
Ca^2+ imaging in Pas: Ca^2+ imaging in small Pas was performed as previously described.8 Fourth-order, small (~50 μm diameter) Pas (see FIG. 1B) were dissected from left lungs in cold HEPES-buffered physiological salt solution (HEPES-PSS; 10 mM HEPES, 134 mM NaCl, 6 mM KCl, 1 mM MgCl2 hexahydrate, 2 mM CaCl2) dihydrate, and 7 mM dextrose; pH adjusted to 7.4 using 1 M NaOH). […] Fluo-4 was excited using a 488-nm solid-state laser, and emitted fluorescence was captured using a 525/36-nm band-pass filter. […] Baseline Ca^2+ signaling activity was recorded in the absence of CPA. […]

For data set [2], the system named is endothelium of human small PAs. Kind of data set: Baseline endothelial Ca2+ signaling in freshly isolated small PAs from human lungs exposed to HR. Type of data set: cell-based. As to conditions: ARC; human small PAs (~50 μm). The procedure:
Ca^2+ imaging in Pas: Ca^2+ imaging in small Pas was performed as previously described.8 Fourth-order, small (~50 μm diameter) Pas (see FIG. 1B) were dissected from left lungs in cold HEPES-buffered physiological salt solution (HEPES-PSS; 10 mM HEPES, 134 mM NaCl, 6 mM KCl, 1 mM MgCl2 hexahydrate, 2 mM CaCl2) dihydrate, and 7 mM dextrose; pH adjusted to 7.4 using 1 M NaOH). Ca^2+ imaging studies were performed in en face preparations of small Pas incubated with Fluo-4 AM (10 μM) and pluronic acid (0.04%) at 37° C. for 10 minutes. For studies after sham or lung IR surgery, small Pas were immediately dissected out after the indicated reperfusion time and incubated en face with Fluo-4 AM. For acute hypoxia-reoxygenation (HR) exposure, small Pas were washed with PBS, after which serum free/glucose-free endothelial cell medium was added. Small Pas were placed in a humidified, sealed hypoxia chamber (Billups-Rothenberg, San Diego, CA), which was subsequently flushed with 95% nitrogen/5% CO2 for 20 minutes and placed in a 37° C. incubator to initiate hypoxia. After 1 hour of hypoxia, the chamber was opened to terminate hypoxia. […] Fluo-4 was excited using a 488-nm solid-state laser, and emitted fluorescence was captured using a 525/36-nm band-pass filter. […] Baseline Ca^2+ signaling activity was recorded in the absence of CPA. […]

The conditions of data set [3]: rat, in vivo; cited from earlier work.
Setting [4] is: ARC 10 μmol/L, small PAs of C57BL6/J mice.

As to `Cc1ccc2c(c1)C=Cc1cc(C)ccc1C2c1cn(Cc2ccc(C(=O)Nc3nn[nH]n3)o2)c(=O)[nH]c1=S` [ARC, AR-C 118925XX], the “lung IR-induced increase in TRPV4EC sparklet activity” value in the data set with TRPV4EC channels (setting [4]) was “inhibited”. Further, the “lung IR-induced increase in baseline endothelial Ca2+ signaling activity” value in data set [1] (setting [4]) is “abolished”. Further, in data set [2], the “HR-induced increase in endothelial Ca2+ signaling” value is recorded as “inhibited”.

As to `O=C(NC1(c2ccccc2)CC1)c1c(CN2CCC(N3CCCCC3)CC2)c(-c2cccc(C(F)(F)F)c2)nc2cc(Br)ccc12` [GSK219, GSK2193874], the “IR-induced increase in TRPV4EC sparklet activity” value with TRPV4EC channels (GSK219, CPA 20 μM present, small PAs after lung IR) was “inhibited”. Also, in data set [1] (GSK219 100 nM, small PAs of control mice, 1 h ischemia + 2 h reperfusion), the “increase in baseline endothelial Ca2+ signals after lung IR” value is “completely abolished”. For the same compound, the “plasma half-life (t1/2)” value in data set [3] is 10 h.

The record behind these values is patent US20260284082A1, “TARGETING THE PANX1-P2Y2R-TRPV4 PATHWAY TO TREAT LUNG ISCHEMIA-REPERFUSION INJURY” (UNIVERSITY OF VIRGINIA PATENT FOUNDATION, priority 2023, published 2026).
